Structures can show the parent of a compound that is named as a salt. ± gives the uncertainty stated by the source.
Key:
[1] = test system: KeratinoSens (HaCaT ARE-luciferase) cells; experiment: cytotoxicity AC50 (CellTiter-Fluor viability); higher = less cytotoxic; conditions: exposure time: 24 h
THP-1 = experiment: efficacy of IL-8 induction relative to DMSO (% activity); higher = stronger induction; conditions: exposure time: 18 h
[2] = test system: KeratinoSens (HaCaT ARE-luciferase) cells; experiment: efficacy of ARE luciferase induction relative to DMSO (% activity over DMSO); higher = stronger induction; conditions: exposure time: 24 h
[3] = test system: cysteine peptide Ac-RFAACAA-COOH; experiment: efficacy of cysteine peptide change (negative = depletion) (% activity); higher = less depletion; conditions: incubation time: 24 h
[4] = test system: lysine peptide Ac-RFAAKAA-COOH; experiment: efficacy of lysine peptide change (negative = depletion) (% activity); higher = less depletion; conditions: incubation time: 24 h
[5] = test system: cysteine peptide Ac-RFAACAA-COOH; experiment: AC50 of cysteine peptide concentration-response (direction given by sign of efficacy); higher = less potent; conditions: incubation time: 24 h

| SMILES | cytotoxicity AC50 [1] | efficacy of IL-8 induction (THP-1) | efficacy of ARE luciferase induction [2] | efficacy of cysteine peptide change [3] | efficacy of lysine peptide change [4] | AC50 [5] |
| --- | --- | --- | --- | --- | --- | --- |
| CC[C@H]1CC[C@H](NCc2cc3c(cc2OC)[C@H]2C[C@H]2C(=O)N3C)[C@H](c2ccccc2)N1 | 26.4 ± 4.7 µM | 18.9 ± 3.4 | 82.8 ± 33 | – | – | – |
| O=[N+]([O-])c1cc(Cl)c(Cl)c(Cl)c1Cl [2,3,4,5-Tetrachloronitrobenzene] | 44.9 ± 5.2 µM | 49.5 ± 10 | 42.4 ± 36 | -5.15 ± 8.9 | -3.6 ± 17 | – |
| NC(=S)NC(N)=S [2,4-Dithiobiuret] | – | 15.5 ± 4.3 | 59.4 ± 25 | -94.5 ± 8 | -0.11 ± 21 | 3.18 ± 0.37 µM |
| COc1cc(C(C)(C)C)c(O)c(C(C)(C)C)c1 [2,6-Di-tert-butyl-4-methoxyphenol] | – | 0 | 17.3 ± 33 | -96.8 ± 3.7 | 3.75 ± 13 | 43.4 ± 7.4 µM |
| Nc1ccc2cc3ccccc3cc2c1 [2-Aminoanthracene] | – | 22.1 ± 0.99 | 25.1 ± 4.7 | -84.3 ± 8.4 | -21.2 ± 1.8 | 0.19 ± 0.07 µM |
| Clc1ccc2c(c1)Nc1ccccc1S2 [2-Chlorophenothiazine] | – | 7.79 ± 8 | 28.3 ± 36 | -90.5 ± 15 | -12.3 ± 2.6 | 4.03 ± 0.75 µM |
| COc1ccccc1N [2-Methoxyaniline hydrochloride] | – | 0 | 68 ± 63 | -74 ± 18 | -4.19 ± 7.3 | 45.5 ± 10 µM |
| Cc1occc1S [2-Methyl-3-furanthiol] | – | 14 ± 8.6 | 34.9 ± 23 | -117 ± 12 | -108 ± 8.9 | 10.6 ± 2.4 µM |
| Nc1cc(Cl)c(O)c(Cl)c1 [4-Amino-2,6-dichlorophenol] | – | 61.6 ± 34 | 99.2 ± 100 | -93.8 ± 6.2 | -45.6 ± 7.5 | 0.27 ± 0.14 µM |
| Nc1ccc([N+](=O)[O-])cc1N [4-Nitro-1,2-phenylenediamine] | 41.6 ± 5.3 µM | 3.64 ± 4.4 | 46.2 ± 27 | -16.4 ± 5.1 | 1.34 ± 22 | – |
| CC(C)(C)c1ccc(S)cc1 [4-tert-Butylbenzenethiol] | – | 16.3 ± 5.9 | 28 ± 17 | -88.2 | 10.3 ± 18 | 44.7 µM |
| Cc1ccc(N)cc1O [5-Amino-2-methylphenol] | – | 3.18 ± 5.5 | 59.5 ± 26 | -77.2 ± 7.4 | -3.52 ± 14 | 33.1 ± 20 µM |
| Oc1ccc2cc(SSc3ccc4cc(O)ccc4c3)ccc2c1 [6-Hydroxy-2-naphthyl disulfide] | – | 52.2 ± 9.7 | 146 ± 38 | -97.3 ± 8 | -144 ± 8 | 0.36 ± 0.04 µM |
| CC1=C(/C=C/C(C)=C\C=C\C(C)=C\C(=O)O)C(C)(C)CCC1 [9-cis Retinoic acid] | – | 4.41 ± 7.6 | 47.6 ± 16 | -104 ± 23 | -19.7 ± 2.9 | 41.1 ± 17 µM |
| CC1=C(/C=C/C(C)=C/C=C/C(C)=C/C=O)C(C)(C)CCC1 [13-cis-Retinal (Vitamin A aldehyde)] | – | 3.58 ± 6.2 | -8.45 ± 12 | -71.2 ± 22 | 3.09 ± 20 | 38.7 ± 6.6 µM |
| CC(C)=CCC/C(C)=C\CO [(2Z)-3,7-Dimethylocta-2,6-dien-1-ol] | – | 3.59 ± 6.2 | 19 ± 27 | -76.1 ± 14 | 21.2 ± 7.3 | 62.8 ± 38 µM |
| CCc1cccc(CC)c1N(COC)C(=O)CCl [Alachlor] | 48.5 ± 6.7 µM | 0 | 35.9 ± 29 | 0 | 64.4 ± 24 | – |

| SMILES | cytotoxicity AC50 [1] | efficacy of IL-8 induction (THP-1) | efficacy of ARE luciferase induction [2] | efficacy of cysteine peptide change [3] | efficacy of lysine peptide change [4] | AC50 [5] |
| --- | --- | --- | --- | --- | --- | --- |
| O=C1c2cccc(O)c2C(=O)c2c(O)cc(CO)cc21 [Aloe-emodin] | – | -5.38 ± 9.3 | 35.9 ± 24 | -75.7 ± 21 | -80.7 ± 18 | 1.33 ± 0.83 µM |
| Nc1cc(-c2ccncc2)c[nH]c1=O [Amrinone] | – | 11.6 ± 10 | 11.6 ± 5.4 | -105 ± 8.9 | 2.29 ± 4 | 31 ± 7.8 µM |
| NNCc1ccccc1 [BENZYLHYDRAZINE HYDROCHLORIDE] | – | 3.79 ± 6.6 | 50.8 ± 24 | -43 ± 5.2 | – | 35.6 ± 4.1 µM |
| CCCCCCCCCCCCCCCC[N+](C)(C)Cc1ccccc1 [Benzylhexadecyldimethylammonium chloride] | 31.8 ± 3.6 µM | 45 ± 9.3 | -36.7 ± 2.6 | 8.87 ± 8.5 | 66 ± 24 | – |
| c1cc(OCC2CO2)ccc1Cc1ccc(OCC2CO2)cc1 (stereo not drawn) [Bis[4-(glycidyloxy)phenyl]methane] | 57 ± 12 µM | -2.51 ± 4.3 | -12 ± 59 | -4.82 ± 8.3 | 62.7 ± 21 | – |
| CC(C)C[C@H](NC(=O)[C@H](Cc1ccccc1)NC(=O)c1cnccn1)B(O)O [Bortezomib] | 0.33 ± 0.02 µM | 504 ± 17 | -42.8 ± 3.7 | 8.93 ± 9.3 | -35 ± 19 | – |
| COc1cc(Nc2c(C#N)cnc3cc(OCCCN4CCN(C)CC4)c(OC)cc23)c(Cl)cc1Cl [Bosutinib] | 12.6 µM | 7.85 ± 7.5 | -18.8 ± 8.1 | 32.5 ± 12 | 120 ± 29 | – |
| COP(=S)(OC)Oc1nc(Cl)c(Cl)cc1Cl [Chlorpyrifos-methyl] | – | 0 | 29.7 ± 29 | -104.3 ± 0.97 | 32.7 ± 12 | 6.5 ± 1.8 µM |
| CCOP(=S)(OCC)Oc1nc(Cl)c(Cl)cc1Cl [Chlorpyrifos] | – | 8.52 ± 1.5 | 32.7 ± 17 | -97.5 ± 7.8 | 26.7 ± 11 | 9.18 ± 2.6 µM |
| O=C1c2cccc(O)c2C(=O)c2c(O)cccc21 [Danthron] | – | 2.66 ± 9.7 | 15 ± 14 | -72.3 ± 21 | -14.7 ± 8 | 4.77 ± 1.4 µM |
| CCOC(=O)CCC(=O)OCC [Diethyl butanedioate] | – | 3.24 ± 5.6 | 24.9 ± 23 | 47 ± 2.6 | 2.82 ± 10 | – |
| c1cc(OCC2CO2)cc(OCC2CO2)c1 (stereo not drawn) [Diglycidyl resorcinol ether (DGRE)] | 63.9 ± 12 µM | 29.2 ± 11 | 74.5 ± 5.8 | -8.5 ± 7.8 | 46.9 ± 8.6 | – |
| COP(=O)(O)OP(=O)(O)OC [Dimethyl dihydrogen diphosphate] | – | 0 | 22.1 ± 30 | 0 | 4.84 ± 8.4 | – |
| COC(=O)CCCCCCCC(=O)OC [Dimethyl nonanedioate] | – | 0 | 10.6 ± 13 | 59.7 ± 11 | 21.8 ± 24 | – |
| C=CCOC(=O)/C=C\C(=O)OCC=C [Diprop-2-en-1-yl (2Z)-but-2-enedioate] | – | 3.9 ± 6.8 | 23.7 ± 6.3 | -44.3 ± 3.7 | -4.75 ± 8.2 | – |
| CCCCC/C=C\C=C\C(=O)OCC [Ethyl (2E,4Z)-deca-2,4-dienoate] | – | 24.4 ± 5.7 | 68.2 ± 0.72 | -99.8 ± 5.5 | -21.2 ± 2.9 | 13.7 ± 2.3 µM |
